Each molecule was assayed on Escherichia coli ATCC2592 (assay: Antimicrobial activity assay, MIC by broth microdilution). Details: 35° C., 20 to 24 h.
Format: cell-based
Protocol: (§1) The antibacterial activity of compounds is determined by the minimal inhibitory concentration (MIC) method. MICs for all bacteria except pneumococci and Haemophilus influenzae are obtained by broth microdilution with cation-adjusted Mueller-Hinton broth (CAMHB; BBL), according to CLSI guidelines (National Committee for Clinical Laboratory Standards. 2003. Methods for dilution antimicrobial susceptibility tests for bacteria that grow aerobically, 5th ed.; a approved standard M7-A6. National Committee for Clinical Laboratory Standards, Wayne, Pa.), with the following modifications: (i) for pneumococci CAMHB is supplemented with 5% (^v/v) horse serum; (ii) for Haemophilus influenzae CAMHB is supplemented with 5% (^v/v) Fildes enrichment (BBL) (Pankuch, G. A., Hoellman, D. B., Lin, G., Bajaksouzian, S., Jacobs, M. R., and Appelbaum, P. C. 1998. Activity of HMR 3647 compared to those of five agents against Haemophilus influenzae and Moraxella catarrhalis by MIC determination and time-kill assay. Antimicrob. Agents Chemother. 42:3032-3034). Microtiter plates are incubated at 35° C. in ambient air for 20 to 24 h, then inspected using an illuminated microtiter plate reader fitted with a magnifying mirror (MIC 2000; Cooke Laboratory Products, Alexandria, Va.). Compounds of the present invention are tested against several bacteria strains comprising some Acinetobacter baumannii, Enterococcus faecalis, Enterococcus faecium, Escherichia coli, Haemophilus influenzae, Klebsiella pneumoniae, Pseudomonas aeruginosa, Staphylococcus aureus, Staphylococcus epidermidis, Streptococcus pyogenes; Enterobacter aerogenes; Enterobacter cloacae and Streptococcus pneumoniae. All exemplified compounds have a MIC values for Staphylococcus aureus ATCC29213, Staphylococcus epidermidis ATCC14990 and Streptococcus pneumoniae ATCC49619 lower or equal to 8 mg/L except examples 25 and 56 for Staphylococcus epidermidis ATCC14990 and examples 20, 49, 51, 56, 58, 60, 66 and 76 for Streptococcus pneumoniae ATCC4961.

| MIC [µg/mL] | SMILES |
| --- | --- |
| ≤ 8 | COc1ccc2ncc3c(c2c1)CC(N1CCC(NCc2ccc4c(c2)NC(=O)CO4)CC1)CS3 (stereo not drawn) [Example 3, 6-{[1-(6-methoxy-3,4-dihydro-2H-1-thia-9-aza-phenanthrene-3-yl)-piperidin-4-ylamino]-methyl}-4H-benzo[1,4]oxazin-3-one] |
| ≤ 8 | COc1ccc2ncc3c(c2n1)NC([C@H]1CC[C@H](NC(=O)c2ccc4c(c2)NC(=O)CO4)CC1)CO3 (relative stereo) [Example 35, 3-oxo-3,4-dihydro-2H-benzo[1,4]oxazine-6-carboxylic acid [trans-4-(6-methoxy-3,4-dihydro-2H-1-oxa-4,5,9-triaza-phenanthren-3-yl)-cyclohexyl]-amide] |
| ≤ 8 | COc1ccc2ncc3c(c2c1)CC(n1cc(NC(=O)c2ccc4c(c2)NC(=O)CS4)cn1)CO3 (stereo not drawn) [Example 4, 3-oxo-3,4-dihydro-2H-benzo[1,4]thiazine-6-carboxylic acid [1-(6-methoxy-3,4-dihydro-2H-1-oxa-9-aza-phenanthrene-3-yl)-1H-pyrazol-4-yl]-amide] |
| ≤ 8 | COc1ccc2ncc3c(c2c1)CC(N1CCC(NCc2ccc4c(c2)NC(=O)CS4)CC1)CO3 (stereo not drawn) [Example 2, 6-{[1-(6-methoxy-3,4-dihydro-2H-1-oxa-9-aza-phenanthrene-3-yl)-piperidin-4-ylamino]-methyl}-4H-benzo[1,4]thiazine-3-one] |
| ≤ 8 | COc1ccc2ncc3c(c2c1)CC(N1CCC(NC(=O)c2ccc4c(c2)NC(=O)CS4)CC1)CO3 (stereo not drawn) [Example 1, 3-oxo-3,4-dihydro-2H-benzo[1,4]thiazine-6-carboxylic acid [1-(6-methoxy-3,4-dihydro-2H-1-oxa-9-aza-phenanthrene-3-yl)-piperidin-4-yl]-amide] |
| ≤ 8 | COc1ccc2ncc3c(c2n1)N(C)C(c1ccc(NC(=O)c2ccc4c(c2)NC(=O)CS4)cn1)CO3 (stereo not drawn) [Example 27, 3-oxo-3,4-dihydro-2H-benzo[1,4]thiazine-6-carboxylic acid [6-(6-methoxy-4-methyl-3,4-dihydro-2H-1-oxa-4,5,9-triaza-phenanthren-3-yl)-pyridin-3-yl]-amide] |

The molecules below were run on Streptococcus pneumoniae ATCC49619 (assay: Antimicrobial activity assay, MIC by broth microdilution (CAMHB with 5% horse serum)). Details: 35° C., 20 to 24 h.
Format: cell-based
Protocol: as §1

| MIC [µg/mL] | SMILES |
| --- | --- |
| > 8 | COc1ccc2ncc3c(c2n1)OC([C@H]1CC[C@H](NC(=O)c2ccc4c(c2)NC(=O)CS4)CC1)CN3C (relative stereo) [Example 49, 3-oxo-3,4-dihydro-2H-benzo[1,4]thiazine-6-carboxylic acid [trans-4-(6-methoxy-1-methyl-2,3-dihydro-1H-4-oxa-1,5,9-triaza-phenanthren-3-yl)-cyclohexyl]-amide] |
| > 8 | COc1ccc2ncc3c(c2c1)CC(n1cc(NCCSc2cccs2)cn1)CO3 (stereo not drawn) [Example 20, [1-(6-methoxy-3,4-dihydro-2H-1-oxa-9-aza-phenanthren-3-yl)-1H-pyrazol-4-yl]-[2-(thiophen-2-ylsulfanyl)-ethyl]-amine] |
| > 8 | COc1ccc2ncc3c(c2n1)CC([C@H]1CC[C@H](NC(=O)c2ccc4c(c2)NC(=O)CS4)CC1)CN3 (relative stereo) [Example 76, 3-oxo-3,4-dihydro-2H-benzo[1,4]thiazine-6-carboxylic acid [trans-4-(6-methoxy-1,2,3,4-tetrahydro-1,5,9-triaza-phenanthren-3-yl)-cyclohexyl]-amide] |

What follows are molecules tested on Staphylococcus aureus and/or Staphylococcus epidermidis and/or Streptococcus pneumoniae (assay: MIC, summary statement for staphylococci and pneumococci). Details: 'generally'.
Format: cell-based
Protocol: (§2) The antibacterial activity of compounds is determined by the minimal inhibitory concentration (MIC) method. MICs for all bacteria except pneumococci and Haemophilus influenzae are obtained by broth microdilution with cation-adjusted Mueller-Hinton broth (CAMHB; BBL), according to CLSI guidelines (National Committee for Clinical Laboratory Standards. 2003. Methods for dilution antimicrobial susceptibility tests for bacteria that grow aerobically, 5th ed.; a approved standard M7-A6. National Committee for Clinical Laboratory Standards, Wayne, Pa.), with the following modifications: (i) for pneumococci CAMHB is supplemented with 5% (^v/v) horse serum; (ii) for Haemophilus influenzae CAMHB is supplemented with 5% (^v/v) Fildes enrichment (BBL) (Pankuch, G. A., Hoellman, D. B., Lin, G., Bajaksouzian, S., Jacobs, M. R., and Appelbaum, P. C. 1998. Activity of HMR 3647 compared to those of five agents against Haemophilus influenzae and Moraxella catarrhalis by MIC determination and time-kill assay. Antimicrob. Agents Chemother. 42:3032-3034). Microtiter plates are incubated at 35° C. in ambient air for 20 to 24 h, then inspected using an illuminated microtiter plate reader fitted with a magnifying mirror (MIC 2000; Cooke Laboratory Products, Alexandria, Va.). […]

| MIC [µg/mL] | SMILES |
| --- | --- |
| ≤ 8 | O=C1CSc2ccc(C(=O)N[C@H]3CC[C@H](C4COc5cnc6ccccc6c5C4)CC3)cc2N1 (relative stereo) [Example 50, 3-oxo-3,4-dihydro-2H-benzo[1,4]thiazine-6-carboxylic acid [trans-4-(3,4-dihydro-2H-1-oxa-9-aza-phenanthren-3-yl)-cyclohexyl]-amide] |

Each molecule was assayed on Staphylococcus aureus and/or Staphylococcus epidermidis and/or Streptococcus pneumoniae and/or Escherichia coli (assay: MIC, summary statement for staphylococci, pneumococci and E. coli). Details: 'generally'.
Format: cell-based
Protocol: as §2

| MIC [µg/mL] | SMILES |
| --- | --- |
| ≤ 8 | COc1ccc2ncc3c(c2n1)NC([C@H]1CC[C@H](NC(=O)c2ccc4c(c2)NC(=O)CO4)CC1)CO3 (relative stereo) [Example 35, 3-oxo-3,4-dihydro-2H-benzo[1,4]oxazine-6-carboxylic acid [trans-4-(6-methoxy-3,4-dihydro-2H-1-oxa-4,5,9-triaza-phenanthren-3-yl)-cyclohexyl]-amide] |
| ≤ 8 | COc1ccc2ncc3c(c2n1)N(C)C(c1ccc(NC(=O)c2ccc4c(c2)NC(=O)CS4)cn1)CO3 (stereo not drawn) [Example 27, 3-oxo-3,4-dihydro-2H-benzo[1,4]thiazine-6-carboxylic acid [6-(6-methoxy-4-methyl-3,4-dihydro-2H-1-oxa-4,5,9-triaza-phenanthren-3-yl)-pyridin-3-yl]-amide] |

Source: patent US8927541B2, “Tricyclic antibiotics” (Basilea Pharmaceutica AG, priority 2009, dated 2015)
